# Results taken from patent US12319709B2, “Diaryl trehalose compounds and uses thereof” (THE UNIVERSITY OF MONTANA, priority 2018, dated 2025).
# What was measured:
# [1] = system: RAW264.7 cells; experiment: Cytokine (TNFα) response of mouse macrophage cell line; Table 2 'Murine'; assay type: cell-based; set-up: Maximum cytokine response Murine: unit not given here; settings: NR = no response
# Description: Compounds were also tested in a mouse macrophage cell line (FIG. 4B). RAW264.7 cells were subjected to increasing concentrations of the compounds and assessed for production of the cytokine TNFα.
# [2] = system: peripheral blood mononuclear cells (PBMCs); experiment: IL-6 induction in fresh human PBMCs; assay type: cell-based; settings: for Maximum cytokine response h-IL-6 / Minimal Effective Concentration h-IL-6: human IL-6, NR = no response
# Description: Tumor necrosis factor alpha (TNFα) and IL-6 production in peripheral blood mononuclear cells (PBMCs) was measured after exposure to various concentrations of the DAT compounds synthesized as shown above. Initial studies focused on two different methods of delivery of the DAT compounds to PBMC cultures. In the first delivery method, the indicated derivative compound was dissolved in isopropanol, serially diluted, and then dried to the bottom of a tissue culture plate. In the second delivery method, the indicated derivative compound was dissolved in DMSO and serially diluted into tissue culture media. In each method, PBMCs were added to the compounds and incubated at 37° C. TNFα (FIG. 1A) and IL-6 (FIG. 1B) were measured after 18-24 hours after treatment by ELISA assay.
# The isolated PBMCs were exposed to increasing concentrations of the indicated compounds resuspended in DMSO and serially diluted in media. IL-6 levels were determined from supernatants eighteen hours after treatment (FIG. 3).
smiles,measurement,setting,value
Cc1cc(C(C)(C)C)cc(C)c1C(=O)OC[C@H]1O[C@H](O[C@H]2O[C@H](COC(=O)c3c(C)cc(C(C)(C)C)cc3C)[C@@H](O)[C@H](O)[C@H]2O)[C@H](O)[C@@H](O)[C@@H]1O [UM1116],Maximum cytokine response Murine,[1],0.005
same,Minimal Effective Concentration Murine,[1],3 µM
same,Maximum cytokine response h-IL-6,[2],2.3 OD
same,Minimal Effective Concentration h-IL-6,[2],100 µM
CCCCOc1cc(OCCCC)cc(C(=O)OC[C@H]2O[C@H](O[C@H]3O[C@H](COC(=O)c4cc(OCCCC)cc(OCCCC)c4)[C@@H](O)[C@H](O)[C@H]3O)[C@H](O)[C@@H](O)[C@@H]2O)c1 [UM1051],Maximum cytokine response Murine,[1],1.3
same,Minimal Effective Concentration Murine,[1],0.13 µM
same,Maximum cytokine response h-IL-6,[2],2.5 OD
same,Minimal Effective Concentration h-IL-6,[2],6 µM
Cc1ccccc1-c1cccc(C(=O)OC[C@H]2O[C@H](O[C@H]3O[C@H](COC(=O)c4cccc(-c5ccccc5C)c4)[C@@H](O)[C@H](O)[C@H]3O)[C@H](O)[C@@H](O)[C@@H]2O)c1 [UM1041],Maximum cytokine response Murine,[1],1.2
same,Minimal Effective Concentration Murine,[1],33 µM
same,Maximum cytokine response h-IL-6,[2],1.3 OD
same,Minimal Effective Concentration h-IL-6,[2],5 µM
CCCCCCOc1cc(OCCCCCC)cc(C(=O)OC[C@H]2O[C@H](O[C@H]3O[C@H](COC(=O)c4cc(OCCCCCC)cc(OCCCCCC)c4)[C@@H](O)[C@H](O)[C@H]3O)[C@H](O)[C@@H](O)[C@@H]2O)c1 [UM1092],Maximum cytokine response Murine,[1],<.001
same,Minimal Effective Concentration Murine,[1],3.4 µM
same,Maximum cytokine response h-IL-6,[2],3.3 OD
same,Minimal Effective Concentration h-IL-6,[2],3.7 µM
CCCOc1cc(C(=O)OC[C@H]2O[C@H](O[C@H]3O[C@H](COC(=O)c4cc(OCCC)c(OCCC)c(OCCC)c4)[C@@H](O)[C@H](O)[C@H]3O)[C@H](O)[C@@H](O)[C@@H]2O)cc(OCCC)c1OCCC [UM1095],Maximum cytokine response Murine,[1],0.001
same,Minimal Effective Concentration Murine,[1],3.4 µM
same,Maximum cytokine response h-IL-6,[2],3.3 OD
same,Minimal Effective Concentration h-IL-6,[2],3.7 µM
COc1cccc(/C=C/C(=O)OC[C@H]2O[C@H](O[C@H]3O[C@H](COC(=O)/C=C/c4cccc(OC)c4OC)[C@@H](O)[C@H](O)[C@H]3O)[C@H](O)[C@@H](O)[C@@H]2O)c1OC [UM1018],Maximum cytokine response Murine,[1],3.5
same,Minimal Effective Concentration Murine,[1],37 µM
same,Maximum cytokine response h-IL-6,[2],1.3 OD
same,Minimal Effective Concentration h-IL-6,[2],333 µM
CC(C)(C)c1cc(C(=O)NC[C@H]2O[C@H](O[C@H]3O[C@H](CNC(=O)c4cc(C(C)(C)C)cc(C(C)(C)C)c4)[C@@H](O)[C@H](O)[C@H]3O)[C@H](O)[C@@H](O)[C@@H]2O)cc(C(C)(C)C)c1 [UM1123],Maximum cytokine response Murine,[1],0.13
same,Minimal Effective Concentration Murine,[1],3.3 µM
same,Maximum cytokine response h-IL-6,[2],2.7 OD
same,Minimal Effective Concentration h-IL-6,[2],33.3 µM
CC(C)(C)c1cc(C(C)(C)C)c(O)c(C(=O)OC[C@H]2O[C@H](O[C@H]3O[C@H](COC(=O)c4c(O)c(C(C)(C)C)cc(C(C)(C)C)c4O)[C@@H](O)[C@H](O)[C@H]3O)[C@H](O)[C@@H](O)[C@@H]2O)c1O [UM1046],Maximum cytokine response Murine,[1],0.8
same,Minimal Effective Concentration Murine,[1],0.4 µM
same,Maximum cytokine response h-IL-6,[2],3 OD
same,Minimal Effective Concentration h-IL-6,[2],20 µM
COc1cc(OC)cc(C(=O)OC[C@H]2O[C@H](O[C@H]3O[C@H](COC(=O)c4cc(OC)cc(OC)c4)[C@@H](O)[C@H](O)[C@H]3O)[C@H](O)[C@@H](O)[C@@H]2O)c1 [UM1014],Maximum cytokine response Murine,[1]; listed as 1014,3.3
same,Minimal Effective Concentration Murine,[1]; listed as 1014,37 µM
same,IL-6 production / activity in fresh PBMCs from multiple donors (in words),"[2]; compounds in DMSO serially diluted in media, supernatants 18 h after treatment, listed as 1014",inactive
CC(C)(C)c1cc(C(=O)OC[C@H]2O[C@H](O[C@H]3O[C@H](COC(=O)c4cc(C(C)(C)C)c(O)c(C(C)(C)C)c4)[C@@H](O)[C@H](O)[C@H]3O)[C@H](O)[C@@H](O)[C@@H]2O)cc(C(C)(C)C)c1O [UM1087],Maximum cytokine response Murine,[1],3
same,Minimal Effective Concentration Murine,[1],0.13 µM
same,Maximum cytokine response h-IL-6,[2],3 OD
same,Minimal Effective Concentration h-IL-6,[2],33.3 µM
O=C(OC[C@H]1O[C@H](O[C@H]2O[C@H](COC(=O)c3ccccc3Nc3ccccc3)[C@@H](O)[C@H](O)[C@H]2O)[C@H](O)[C@@H](O)[C@@H]1O)c1ccccc1Nc1ccccc1 [UM1075],Maximum cytokine response Murine,[1],2.2
same,Minimal Effective Concentration Murine,[1],3.7 µM
same,Maximum cytokine response h-IL-6,[2],3.5 OD
same,Minimal Effective Concentration h-IL-6,[2],20 µM
Cc1ccc(C(=O)OC[C@H]2O[C@H](O[C@H]3O[C@H](COC(=O)c4ccc(C)cc4C(F)(F)F)[C@@H](O)[C@H](O)[C@H]3O)[C@H](O)[C@@H](O)[C@@H]2O)c(C(F)(F)F)c1 [UM1085],Maximum cytokine response Murine,[1],2.2
same,Minimal Effective Concentration Murine,[1],33 µM
same,Maximum cytokine response h-IL-6,[2],3 OD
same,Minimal Effective Concentration h-IL-6,[2],100 µM
Cc1cc(C)cc(C(=O)OCC2OC(OC3OC(COC(=O)c4cc(C)cc(C)c4)C(O)C(O)C3O)C(O)C(O)C2O)c1 (centres unmarked) [UM1016],Maximum cytokine response Murine,[1],3
same,Minimal Effective Concentration Murine,[1],4.1 µM
same,Maximum cytokine response h-IL-6,[2],1.5 OD
same,Minimal Effective Concentration h-IL-6,[2],1000 µM
O=C(OC[C@H]1O[C@H](O[C@H]2O[C@H](COC(=O)c3cc(C(F)(F)F)ccc3C(F)(F)F)[C@@H](O)[C@H](O)[C@H]2O)[C@H](O)[C@@H](O)[C@@H]1O)c1cc(C(F)(F)F)ccc1C(F)(F)F [UM1066],Maximum cytokine response Murine,[1],3
same,Minimal Effective Concentration Murine,[1],100 µM
same,Maximum cytokine response h-IL-6,[2],2.6 OD
same,Minimal Effective Concentration h-IL-6,[2],33.3 µM
CCOc1cc(C(=O)OC[C@H]2O[C@H](O[C@H]3O[C@H](CO)[C@@H](O)[C@H](O)[C@H]3O)[C@H](O)[C@@H](O)[C@@H]2O)cc(OCC)c1OCC [UM1120],Maximum cytokine response Murine,[1],11
same,Minimal Effective Concentration Murine,[1],2.5 µM
same,Maximum cytokine response h-IL-6,[2],0.3 OD
same,Minimal Effective Concentration h-IL-6,[2],100 µM
CCCCCOc1cc(OCCCCC)cc(C(=O)NC[C@H]2O[C@H](O[C@H]3O[C@H](CNC(=O)c4cc(OCCCCC)cc(OCCCCC)c4)[C@@H](O)[C@H](O)[C@H]3O)[C@H](O)[C@@H](O)[C@@H]2O)c1 [UM1111],Maximum cytokine response Murine,[1],0.13
same,Minimal Effective Concentration Murine,[1],3.3 µM
same,Maximum cytokine response h-IL-6,[2],2.5 OD
same,Minimal Effective Concentration h-IL-6,[2],33.3 µM
O=C(OC[C@H]1O[C@H](O[C@H]2O[C@H](COC(=O)c3ccc(-c4ccccc4)cc3O)[C@@H](O)[C@H](O)[C@H]2O)[C@H](O)[C@@H](O)[C@@H]1O)c1ccc(-c2ccccc2)cc1O [UM1062],Maximum cytokine response Murine,[1],3
same,Minimal Effective Concentration Murine,[1],100 µM
same,Maximum cytokine response h-IL-6,[2],3 OD
same,Minimal Effective Concentration h-IL-6,[2],100 µM
CCOc1cc(C(=O)NC[C@H]2O[C@H](O[C@H]3O[C@H](CNC(=O)c4cc(OCC)c(OCC)c(OCC)c4)[C@@H](O)[C@H](O)[C@H]3O)[C@H](O)[C@@H](O)[C@@H]2O)cc(OCC)c1OCC [UM1110],Maximum cytokine response Murine,[1],11
same,Minimal Effective Concentration Murine,[1],2.5 µM
same,Maximum cytokine response h-IL-6,[2],1 OD
same,Minimal Effective Concentration h-IL-6,[2],100 µM
CCOc1cc(C(=O)OCC2OC(OC3OC(COC(=O)c4cc(OCC)c(OCC)c(OCC)c4)C(O)C(O)C3O)C(O)C(O)C2O)cc(OCC)c1OCC (centres unmarked) [UM1049],Maximum cytokine response Murine,[1],1.3
same,Minimal Effective Concentration Murine,[1],0.13 µM
same,Maximum cytokine response h-IL-6,[2],3.3 OD
same,Minimal Effective Concentration h-IL-6,[2],2 µM
COc1ccc(-c2ccc(C(=O)OC[C@H]3O[C@H](O[C@H]4O[C@H](COC(=O)c5ccc(-c6ccc(OC)cc6)cc5)[C@@H](O)[C@H](O)[C@H]4O)[C@H](O)[C@@H](O)[C@@H]3O)cc2)cc1 [UM1070],Maximum cytokine response Murine,[1],2
same,Minimal Effective Concentration Murine,[1],100 µM
same,Maximum cytokine response h-IL-6,[2],3 OD
same,Minimal Effective Concentration h-IL-6,[2],33.3 µM
CCCCCCOc1cc(C(=O)OC[C@H]2O[C@H](O[C@H]3O[C@H](COC(=O)c4cc(OCCCCCC)c(OCCCCCC)c(OCCCCCC)c4)[C@@H](O)[C@H](O)[C@H]3O)[C@H](O)[C@@H](O)[C@@H]2O)cc(OCCCCCC)c1OCCCCCC [UM1097],Maximum cytokine response Murine,[1],0.005
same,Minimal Effective Concentration Murine,[1],3.4 µM
same,Maximum cytokine response h-IL-6,[2],3.3 OD
same,Minimal Effective Concentration h-IL-6,[2],3.7 µM
O=C(OC[C@H]1O[C@H](O[C@H]2O[C@H](COC(=O)c3cc([N+](=O)[O-])cc([N+](=O)[O-])c3)[C@@H](O)[C@H](O)[C@H]2O)[C@H](O)[C@@H](O)[C@@H]1O)c1cc([N+](=O)[O-])cc([N+](=O)[O-])c1 [UM1080],Maximum cytokine response Murine,[1],1
same,Minimal Effective Concentration Murine,[1],33 µM
same,Maximum cytokine response h-IL-6,[2],2 OD
same,Minimal Effective Concentration h-IL-6,[2],100 µM
CCCCCCCCOc1cc(OCCCCCCCC)cc(C(=O)OC[C@H]2O[C@H](O[C@H]3O[C@H](COC(=O)c4cc(OCCCCCCCC)cc(OCCCCCCCC)c4)[C@@H](O)[C@H](O)[C@H]3O)[C@H](O)[C@@H](O)[C@@H]2O)c1 [UM1093],Maximum cytokine response Murine,[1],<.001
same,Minimal Effective Concentration Murine,[1],3.4 µM
same,Maximum cytokine response h-IL-6,[2],3.4 OD
same,Minimal Effective Concentration h-IL-6,[2],1.2 µM
CCCCCCCCCCOc1cc(C(=O)OC[C@H]2O[C@H](O[C@H]3O[C@H](COC(=O)c4cc(OCCCCCCCCCC)c(OCCCCCCCCCC)c(OCCCCCCCCCC)c4)[C@@H](O)[C@H](O)[C@H]3O)[C@H](O)[C@@H](O)[C@@H]2O)cc(OCCCCCCCCCC)c1OCCCCCCCCCC [UM1099],Maximum cytokine response Murine,[1],0.005
same,Minimal Effective Concentration Murine,[1],3.4 µM
same,Maximum cytokine response h-IL-6,[2],3.2 OD
same,Minimal Effective Concentration h-IL-6,[2],11 µM
